US5185341A, “Substituted 5-(phenoxyalkanoylamino)-uracil compounds, methods for making same and pharmaceutical compositions based on same” (Arzneimittelwerk Dresden GMBH, priority 1990, dated 1993)
Counter-ions that a name gives are not always drawn.

Experiments:
[1] = Antibiotiki 24(1979) p.659; cited from earlier work
[2] = Arzneimittelforschung 27(1977) p. 132; cited from earlier work
[3] = Toxicity test in mouse (LD50, intraperitoneal application); conditions: in vivo, ip
Excerpt: The results of these toxicity tests on mouse and rat are shown in the following table as well as the effective dosage: […]

Structure (SMILES) | antibiotic action [1] | protection against radiation [2] | LD50 [3] [mg/kg]
Cc1cc(=O)[nH]c(=O)[nH]1 [6-methyluracil] | has an antibiotic action | can protect against radiation | 
Cc1[nH]c(=O)n(C)c(=O)c1NC(=O)COc1ccc(Cl)cc1 [Example 1, 5-(p-Chlorophenoxy-acetamido)-1,4-dimethyluracil] |  |  | > 1700
Cc1[nH]c(=O)[nH]c(=O)c1NC(=O)COc1ccc(Cl)cc1 [Example 2, 5-(p-Chlorophenoxy-acetamido)-4-methyluracil] |  |  | 800
Cc1c(NC(=O)COc2ccc(Cl)cc2)c(=O)n(C)c(=O)n1C [Example 3] |  |  | > 1700
Cn1c(N)c(NC(=O)COc2ccc(Cl)cc2)c(=O)n(C)c1=O [Example 4, 4-amino-5-(p-Chlorophenoxy-acetamido)-1,3-dimethyluracil] |  |  | > 1700
CN(C)CCOC(=O)COc1ccc(Cl)cc1 [Meclofenoxate HCl] |  |  | 856
NC(=O)CN1CCCC1=O [Piracetam] |  |  | > 2000
